According to patent US5880099A, “Inositol polyphosphates and methods of using same” (The Regents of the University of California, priority 1997, dated 1999):
Entries after “also recorded” stand apart in the source; their conditions may differ.

How the values were obtained:
[1] = tested on: T84 cells (EGF induced inhibition of chloride ion secretion); test: EGF induced inhibition of carbachol-stimulated chloride ion secretion in T84 cells and its reversal; format: cell-based, human; details: EGF 16.3 nM, carbachol 100 μM
Experimental: After an additional 15 min incubation, 100 μM carbachol was added to acutely elevate intracellular calcium concentrations. Controls also were stimulated with carbachol but were not pretreated with EGF. Data are the means of duplicate measurements from a representative experiment (total of three experiments).

[2] = tested on: Ins(3,4,5,6)P4; details: background; cited from earlier work
[3] = tested on: T84 cells (EGF induced inhibition of chloride ion secretion); details: cited from earlier work
[4] = tested on: phosphatidylinositol 3-kinase (PI 3-kinase); details: Uribe et al. 1996b; cited from earlier work
[5] = tested on: colonic epithelial T84 cells (calcium-mediated chloride ion secretion); test: Inhibition of calcium-mediated chloride ion secretion (Table I summary); format: cell-based, human; details: pathway: Ins (3,4,5,6)P4
Excerpt: The invention provides compounds that are agonists or antagonists of inositol polyphosphates. Inositol polyphosphate derivatives can function as inositol polyphosphate agonists and antagonists. The effects of compounds of the invention on Ins(3,4,5,6)P4 - and PtdInsP3 -mediated inhibition of calcium-mediated chloride ion secretion are described in the Examples and summarized in Table I.
Enantiomerically pure 1,2-Bt2 -Ins(3,4,5,6)P4 /AM was synthesized to determine if 1,2-Bt2 -Ins(3,4,5,6)P4 /AM mediates the uncoupling of chloride ion secretion from intracellular calcium concentrations. T84 cells (passages 18-48) were maintained as described previously (Weymer, et al., J. Clin. Invest. 76:1828 (1985)), which is incorporated herein by reference. After 7-10 days of incubation on SNAP-WELLS (Corning Costar; Cambridge, Mass.), monolayers had formed tight junctions. Cell monolayers were preincubated with 100, 200 or 400 μM Bt2 -Ins(3,4,5,6)P4 /AM for 30 min prior to mounting. After an additional 30 min, 0.1 mM histamine was added and chloride ion secretion was monitored. Chloride ion secretion was measured as short circuit current (Isc) across T84 monolayers grown to confluence and mounted in Ussing chambers equipped with voltage clamps (Physiologic Instruments; San Diego, Calif.). Data was acquired and analyzed using "Acquire and Analyze" software (Physiologic Instruments).

[6] = tested on: T84 cells (Ins(3,4,5,6)P4 inhibition of histamine-stimulated chloride ion secretion); test: Reversal of Bt2 -Ins(3,4,5,6)P4 /AM inhibition of histamine-stimulated chloride ion secretion in T84 cells; format: cell-based, human; details: T84 cells, histamine-stimulated
Experimental: Initial studies were directed towards understanding structural determinants of Ins(3,4,5,6)P4 responsible for the inhibitory effect on calcium-mediated chloride ion secretion. A series of cell permeable inositol polyphosphate derivatives were synthesized. These derivatives contained either one or two non-hydrolyzable chemical groups on the 1, 2 or 3 position. T84 monolayers were preincubated for 30 minutes with 200 μM of 2-Bt-1-Me-Ins(3,4,5,6)P4 /AM, Me2 -Ins(3,4,5,6)P4 /AM, Me2 -Ins(1,4,5,6)P4 /AM or 2-Bt-3-Me-Ins(1,4,5,6)P4 /AM.
Following the incubation, cells were mounted in Ussing chambers. Calcium-mediated chloride ion secretion was stimulated with histamine (10^-4 M). Control values were the response to histamine in coincubated monolayers. Data are represented as mean peak ΔIsc ±SEM, expressed as % control for 8 to 10 experiments. Significant differences were identified using the Student's two-tailed t test.
T84 cells were preincubated with cell permeant inositol polyphosphates as described above to determine if any of the inositol polyphosphate derivatives function as antagonists of Ins(3,4,5,6)P4 inhibition of calcium-mediated chloride ion secretion. Following histamine stimulation, short circuit current was measured. […] The % control shown in FIG. 3 represents ΔIsc over peak Isc in control monolayers stimulated with histamine. However, […]

[7] = tested on: T84 colonic epithelial cells (carbachol-mediated inhibition of chloride ion secretion); test: Reversal of carbachol-mediated inhibition of thapsigargin-stimulated chloride ion secretion in T84 cells; format: cell-based, human; details: carbachol 10^-4 M, thapsigargin 1 μM
Experimental: T84 colonic epithelial cells were treated with D,L-1,2-cyclohexylidene-Ins(3,4,5,6)P4 /AM, 1-Bu-2-Bt-Ins(3,4,5,6)P4 /AM, Bu2 -Ins(3,4,5,6)P4 /AM, 3-Bt-2-Bu-Ins(1,4,5,6)P4 /AM, Bu2 -Ins(1,4,5,6)P4 /AM, 1-Bt-2-Bu-Ins(3,4,5,6)P4 /AM or 3-Bu-2-Bt-Ins(1,4,5,6)P4 /AM and the short circuit current was measured.
One set of cells was preincubated for 30 min with an inositol polyphosphate derivative. The other two sets of cells were preincubated with vehicle, alone. Measurement of Isc was initiated at time 0. At 5 min, carbachol (10^-4 M) was added to one set of cells preincubated with vehicle alone (designated "Carbachol" in FIG. 5) and to the set of cells preincubated with inositol polyphosphate derivatives (designated "Carbachol+D,L-1,2-Cyclohexylidene-Ins(3,4,5,6)P4 /AM" in FIG. 5A). At 30 min, 1 μM thapsigargin was added. Data were collected for n=4 to 6 experiments.

Row | Compound | effect on carbachol-stimulated chloride ion secretion / EGF induced inhibition (in words) [1] | increase in Ins(3,4,5,6)P4 levels [2] | effect on calcium-mediated chloride ion secretion induced by carbachol and thapsigargin (in words) ([3]; Uribe et al. 1996) | effect on formation of PI 3-kinase products (in words) [4] | Mechanism and Inositol Polyphosphate Pathway Affected [5] | reversal of the inhibitory effect of Bt2 -Ins(3,4,5,6)P4 /AM / Ins(3,4,5,6)P4-mediated inhibition (in words) [6] | reversal of carbachol-mediated inhibition of chloride ion secretion (in words) [7] | reversal of EGF induced inhibition of chloride ion secretion (in words) ([3]; Uribe et al. 1996b)
1 | EGF: epidermal growth factor (EGF) | decreased chloride ion secretion; also recorded: inhibited carbachol stimulated chloride ion secretion | 1.7 -fold | inhibits calcium-mediated chloride ion secretion | stimulated an increase in levels of the PI 3-kinase products |  |  |  | 
2 | CCCCO[C@@H]1[C@H](OC(=O)CCC)[C@H](OP(=O)(OCOC(C)=O)OCOC(C)=O)[C@@H](OP(=O)(OCOC(C)=O)OCOC(C)=O)[C@H](OP(=O)(OCOC(C)=O)OCOC(C)=O)[C@H]1OP(=O)(OCOC(C)=O)OCOC(C)=O [1-Bu-2-Bt-Ins(3,4,5,6)P4 /AM, D-1-O-Butyl-2-O-butyryl-myo-inositol 3,4,5,6-tetrakisphosphate octakis(acetoxymethyl)ester] |  |  |  |  | Antagonist of | reversed Ins(3,4,5,6)P4 -mediated inhibition of chloride ion secretion | enhanced chloride ion secretion; also recorded: reversed the carbachol-mediated inhibition of chloride ion secretion stimulated by thapsigargin | 
3 | CCCCO[C@@H]1[C@H](OCCCC)[C@H](OP(=O)(OCOC(C)=O)OCOC(C)=O)[C@@H](OP(=O)(OCOC(C)=O)OCOC(C)=O)[C@H](OP(=O)(OCOC(C)=O)OCOC(C)=O)[C@H]1OP(=O)(OCOC(C)=O)OCOC(C)=O [Bu2 -Ins(3,4,5,6)P4 /AM, D-1,2-Di-O-butyl-myo-inositol 3,4,5,6-tetrakisphosphate octakis(acetozymethyl)ester] |  |  |  |  | Antagonist of | reversed Ins(3,4,5,6)P4 -mediated inhibition of chloride ion secretion | enhanced chloride ion secretion; also recorded: reversed the carbachol-mediated inhibition of chloride ion secretion stimulated by thapsigargin | 
4 | CC(=O)OCOP(=O)(OCOC(C)=O)O[C@H]1[C@H](OP(=O)(OCOC(C)=O)OCOC(C)=O)[C@@H](OP(=O)(OCOC(C)=O)OCOC(C)=O)[C@H]2OC3(CCCCC3)O[C@H]2[C@@H]1OP(=O)(OCOC(C)=O)OCOC(C)=O (relative stereo) [rac-1,2-Di-O-cycloheylidene-myo-inositol 3,4,5,6-tetrakisphosphate octakis(acetoxymethyl)ester] |  |  |  |  | Antagonist of |  | enhanced chloride ion secretion; also recorded: reversed the inhibitory effect of carbachol on calcium-mediated chloride ion secretion; also recorded: reversed the carbachol-mediated inhibition of chloride ion secretion stimulated by thapsigargin | 
5 | COC[C@H]1OC(=O)c2coc3c2[C@@]1(C)C1=C(C3=O)[C@@H]2CCC(=O)[C@@]2(C)C[C@H]1OC(C)=O [Wortmannin, reference compound] |  |  |  | blocked formation of PtdInsP3 and PtdInsP2 |  |  |  | reversed the EGF induced inhibition of chloride ion secretion
